From paper PMC6445166, “Subnanomolar indazole-5-carboxamide inhibitors of monoamine oxidase B (MAO-B) continued: indications of iron binding, experimental evidence for optimised solubility and brain penetration” (Journal of Enzyme Inhibition and Medicinal Chemistry, 2017)
Where “and” joins values, the source holds several entries; their conditions need not be identical. Equal entries are not always repeated. Where two headings read alike, the source gives them in different places.

Legend:
[1] = target: T1, hMAO-B (Homo sapiens, UniProt P27338); conditions: at IC80: NTZ compounds 1.0 nM, selegiline 30 nM, safinamide 50 nM; p-tyramine raised to 1.0 mM after 22 min
T1 sequence (P27338 1-520): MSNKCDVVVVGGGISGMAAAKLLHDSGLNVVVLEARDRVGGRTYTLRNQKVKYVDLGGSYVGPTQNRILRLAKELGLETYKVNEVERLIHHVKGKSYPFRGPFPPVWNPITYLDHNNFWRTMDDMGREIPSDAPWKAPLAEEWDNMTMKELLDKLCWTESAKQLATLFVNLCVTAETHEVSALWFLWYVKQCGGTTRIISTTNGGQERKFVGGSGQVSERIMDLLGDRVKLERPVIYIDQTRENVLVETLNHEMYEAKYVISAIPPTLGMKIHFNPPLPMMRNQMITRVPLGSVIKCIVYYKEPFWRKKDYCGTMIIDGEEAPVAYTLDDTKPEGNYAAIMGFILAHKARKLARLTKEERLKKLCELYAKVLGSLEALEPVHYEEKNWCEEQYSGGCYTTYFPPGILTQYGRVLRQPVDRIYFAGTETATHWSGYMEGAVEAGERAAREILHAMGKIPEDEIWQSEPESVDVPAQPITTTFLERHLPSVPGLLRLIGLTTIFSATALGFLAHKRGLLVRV

[2] = Chemical stability in phosphate buffer; format: physicochemical; conditions: chemical stability in 10 mM phosphate buffer at pH 7.4; 60 days at room temperature
Description: The purity and solubility of the compounds was determined by an analytical HPLC-UV method using an LC-MS instrument (Applied Biosystems API 2000 LC/ESI-MS; HPLC Agilent 1100 binary pump system) coupled with a diode array detector (DAD) with an UV absorption in the range from 220 to 400 nm. Mass spectra were recorded on an API 2000 mass spectrometer equipped with an electrospray ion source (ESI) by using triple ion quadrupole (TIC) with an alternating full scan detection in positive (+Q) and/or negative (-Q) mode. As mobile phases for the different analytical LC methods were used methanol (Sigma-Aldrich, Chromasolv LC-MS grade), ammonium acetate (2.0 mM) and water Purelab flex.
500 µL of a 10 mM compound stock solution in DMSO, ACN or MeOH was added to a 2.0 mL HPLC glass vial containing 500 µL phosphate buffer (10 mM, pH 7.4) and sonicated for 60 sec. The sample was shaken at 37 °C for 2 hours and then left for 60 days at room temperature under light exposure. The chemical stability of compounds was checked by UV-visible spectroscopy (Figure S1).

[3] = target: T2, human recombinant MAO-A (Homo sapiens, UniProt P21397); format: biochemical
T2 construct: purchased Sigma-Aldrich M7316; host or cells: baculovirus-infected BTI-TN-5B1-4 insect cells (microsomes)
T2 sequence (P21397 1-527): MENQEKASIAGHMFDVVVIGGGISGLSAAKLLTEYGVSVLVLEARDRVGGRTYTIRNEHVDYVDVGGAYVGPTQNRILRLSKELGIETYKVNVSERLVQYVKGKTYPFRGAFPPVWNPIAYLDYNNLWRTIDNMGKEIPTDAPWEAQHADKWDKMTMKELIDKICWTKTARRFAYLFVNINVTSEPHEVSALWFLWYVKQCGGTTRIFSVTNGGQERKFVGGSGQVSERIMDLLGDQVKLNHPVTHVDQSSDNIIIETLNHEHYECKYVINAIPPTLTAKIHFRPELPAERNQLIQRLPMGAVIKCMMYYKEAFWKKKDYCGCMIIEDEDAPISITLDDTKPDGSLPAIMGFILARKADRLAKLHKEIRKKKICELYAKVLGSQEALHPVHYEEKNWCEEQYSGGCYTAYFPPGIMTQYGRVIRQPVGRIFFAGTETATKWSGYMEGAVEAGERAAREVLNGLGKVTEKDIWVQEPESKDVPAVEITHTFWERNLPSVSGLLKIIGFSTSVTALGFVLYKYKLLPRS

[4] = Solubility studies (HPLC-UV/ESI-MS; kinetic solubility); format: physicochemical; conditions: measured, solubility in mol/L at pH 7.4 in 60 mM phosphate buffer or pure water at rt; for solubility: 60 mM phosphate buffer or pure water, pH 7.4, aqueous buffer, read-out: logS7.4
[5] = Octanol-water distribution coefficient (logD); conditions: for logD7.4: measured, pH 7.4 in 60 mM phosphate buffer at rt
[6] = PAMPA-BBB permeability assay; conditions: for PAMPA-BBB −logPe: 4 h under stirring, Prisma HT buffer; for CNS+/– Prediction: from PAMPA-BBB permeability, limit for BBB permeation Pe > 4.0 × 10^−6 cm/s
[7] = Solubility studies (HPLC-UV/ESI-MS; kinetic solubility); format: physicochemical; conditions: thermodynamic from solid
Description: Solid […]
samples of compounds (2–4 mg) were weighed and serial diluted in 1.0 mL either of water (Purelab flex) or water-methanol (1:1). A precisely weighed sample of the respective compound in methanol (1.0 ± 0.05 mg/mL) was used as a reference. A blank solution without detectable analyte was used for instrument calibration for each experiment. The suspensions were mixed on a vortex for 5 min, sonicated for 1 h, and then shaken over night at rt. After that, the samples were left for 1 h at rt and then filtered through a 0.45 µm filter. Aliquots (10 µL) of each sample were injected into the HPLC/ESI-MS system (Applied
(1 picture or pasted object on this page, not shown here)
Biosystems API 2000 ESI-MS, HPLC Agilent 1100 binary pump system) equipped with a Phenomenex Luna C18 reverse phase column and subsequently measured by chromatographic procedure (DAD detection) with mass conformation (MS scan in positive and negative mode). The mass scan method was adapted for each tested compound depending on its limit of detection (LOD) and physicochemical properties (Table S1, Figure S2). The solubility of the compounds was calculated by Analyst software v.
1.5.1 (AB Sciex Pte. Ltd.) using one point calibration after subtraction the absorbance of the blank solution from the total analyte peak area measured for each sample in the experiments. To verify the results, an equimolar mixture (each in a concentration equal to 1.0 mg/mL) of the compounds in methanol was prepared and measured under the same conditions as described above (see Figure 4A). All experiments were performed in triplicate with at least three analytical runs for each sample.
The solubility data for tested compounds, obtained from the different analytical techniques, are […]
Table S1. Solubility data for selected compounds.
Compd. Methoda Solubility in 50% methanolb Solubility in waterb […]
a Method of detection: HPLC-UV method 1 (DAD), HPLC/ESI-MS method 2 (+Q/–Q scan: +MI+H+/– MI–H–). b The values are the mean ± SD (n ≥ 3).

[8] = target: T1, hMAO-B; assay: MAO-B kinetic experiments (Lineweaver-Burk); format: biochemical; parameters: purchased Sigma-Aldrich M7441; host or cells: baculovirus-infected BTI-TN-5B1-4 insect cells (microsomes); conditions: 0.5 and 1.0 nM inhibitor, varied p-tyramine
[9] = PAMPA-BBB standard drugs; cited from earlier work
[10] = PAMPA
[11] = pure water (Purelab flex), water, method 1: HPLC-UV (DAD), read-out: Solubility in water Sw
[12] = pure water (Purelab flex), water, method 1: HPLC-UV (DAD), read-out: Solubility in water logSw
[13] = pure water (Purelab flex), water, method 2: HPLC/ESI-MS, read-out: Solubility in water logSw
[14] = pure water (Purelab flex), water, pure water, mean ± SD (n ≥ 3), read-out: Solubility in water
[15] = water-methanol (1:1), aqueous with cosolvent or surfactant or cyclodextrin, mean ± SD (n ≥ 3), read-out: Solubility in 50% methanol
[16] = water-methanol (1:1), aqueous with cosolvent or surfactant or cyclodextrin, method 1: HPLC-UV (DAD), read-out: Solubility in 50% methanol S
[17] = water-methanol (1:1), aqueous with cosolvent or surfactant or cyclodextrin, method 1: HPLC-UV (DAD), read-out: Solubility in 50% methanol logS
[18] = water-methanol (1:1), aqueous with cosolvent or surfactant or cyclodextrin, method 2: HPLC/ESI-MS, read-out: Solubility in 50% methanol logS
[19] = pure water (Purelab flex), water, method 2: HPLC/ESI-MS, read-out: Solubility in water Sw
[20] = water-methanol (1:1), aqueous with cosolvent or surfactant or cyclodextrin, method 2: HPLC/ESI-MS, read-out: Solubility in 50% methanol S
[21] = PAMPA-BBB validation with standard drugs

SMILES | mode of interaction with hMAO-B (reversible or irreversible) [1] | PAMPA-BBB −logPe [6] | Papp at 4 h, 10 µM ([6]; PAMPA, pH 7.4) | solubility [7, 11] | solubility [7, 12] | solubility [7, 13] | solubility [7, 14] | solubility [7, 15] | solubility [7, 16] | solubility [7, 17] | solubility [7, 18] | Stability [2] | logS7.4 [4] | Reported –logPe [9] | further results
O=C(Nc1ccc(Cl)c(Cl)c1)c1ccc2[nH]ncc2c1 [NTZ-1006] | reversible inhibitors of hMAO-B |  |  |  |  |  |  |  |  |  |  | Stable |  |  | IC50 [3]: > 10 µM
O=C(Nc1ccc(F)c(Cl)c1)c1ccc2[nH]ncc2c1 [NTZ-1032] |  |  |  |  |  |  |  |  |  |  |  | Stable |  |  | 
O=C(Nc1ccc(F)c(F)c1)c1ccc2[nH]ncc2c1 [NTZ-1034] |  |  |  |  |  |  |  |  |  |  |  | Stable | −4.22 |  | logD7.4 [5]: 2.04
Cn1ncc2cc(C(=O)Nc3ccc(F)c(Cl)c3)ccc21 [NTZ-1441] |  | 3.84 | 144 ± 3.4 ×10⁻⁶ cm/s | 10.6 µg/mL and 34.9 µM | 34.7 µM | 135 µM | 42.1 µg/mL and 136 µM | 609 µg/mL and 2040 µM | 663 µg/mL and 2190 µM | 2190 µM | 2040 µM | Stable | −3.87 |  | solubility [4]: > 100 µM; solubility [7, 19]: 136 ± 5.16 µM; solubility [7, 20]: 609 ± 48.7 µg/mL; logD7.4 [5]: 2.19; logD ([5]; octanol/water, pH 7.4): < 3
CC(=O)[C@H]1CC[C@H]2[C@@H]3CCC4=CC(=O)CC[C@]4(C)[C@H]3CC[C@]12C [Progesterone, reference compound] |  |  |  |  |  |  |  |  |  |  |  |  |  | 3.7 ± 0.25 | Papp at 4 h ([6]; PAMPA, pH 7.4): 55.2 ± 0.02 ×10⁻⁶ cm/s; Experiment –logPe [6, 21]: 4.26 ± 0.00; CNS+/– Prediction [6]: CNS+
CC(C)NCC(O)COc1cccc2ccccc12.Cl (stereo not shown) [Propranolol HCl, reference compound] |  |  |  |  |  |  |  |  |  |  |  |  |  | 4.1 ± 0.25 | Experiment Pe [6, 21]: 98.7 ± 9.96 10-6 cm/s; Experiment –logPe [6, 21]: 4.01 ± 0.04; CNS+/– Prediction [10]: CNS+
Cn1c(=O)c2[nH]cnc2n(C)c1=O [Theophylline] |  |  |  |  |  |  |  |  |  |  |  |  |  | > 6.0 ± 0.25 | 

The next lines start with results.

mode of interaction with hMAO-B (reversible or irreversible) [1] | PAMPA-BBB −logPe [6] | Papp at 4 h, 10 µM ([6]; PAMPA, pH 7.4) | solubility [7, 11] | solubility [7, 12] | solubility [7, 13] | solubility [7, 14] | solubility [7, 15] | solubility [7, 16] | solubility [7, 17] | solubility [7, 18] | SMILES | Stability [2] | logS7.4 [4] | Reported –logPe [9] | further results
reversible inhibitors of hMAO-B | 3.91 | 118 ± 6.4 ×10⁻⁶ cm/s | 0.75 µg/mL and 2.36 µM | 2.34 µM | 17.8 µM | 5.62 µg/mL and 17.6 µM | 156 µg/mL and 490 µM | 105 µg/mL and 300 µM | 331 µM | 447 µM | Cn1ncc2cc(C(=O)Nc3ccc(Cl)c(Cl)c3)ccc21 [NTZ-1091] | Stable | −4.75 |  | type of hMAO-B inhibition (Lineweaver–Burk) [8]: linear and intersected at the Y-axis
 | 3.83 | 148 ± 2.4 ×10⁻⁶ cm/s | 10.4 µg/mL and 36.3 µM | 38.9 µM | 214 µM | 61.6 µg/mL and 215 µM | 610 µg/mL and 2120 µM | 631 µg/mL and 2180 µM | 2190 µM | 2140 µM | Cn1ncc2cc(C(=O)Nc3ccc(F)c(F)c3)ccc21 [NTZ-1471] | Stable | −3.67 |  | CNS+/– Prediction [6]: CNS+; solubility [4]: > 100 µM; solubility [7, 19]: 214 ± 33.3 µM; solubility [7, 20]: 610 ± 26.2 µg/mL
reversible |  |  |  |  |  |  |  |  |  |  | C[C@H](NCc1ccc(OCc2cccc(F)c2)cc1)C(N)=O [Safinamide, reference compound] |  |  |  | 
